The values below come from US7332605B2, “Process for the synthesis of CXCR4 antagonist” (AnorMED, Inc., priority 2004, dated 2008).

Values after ≈ are worked out from the molar mass of the structure shown. Read-outs that look alike come from different tables or passages of the source.

For one data set, the system named is HIV, X4 (T-tropic) virus. To be noted: in humans; cited from earlier work.
The nature of data set [1]: Solubility of compound I in organic crystallization solvents. Type of data set: physicochemical. The following applies: organic solvent or mixture. The procedure: A crystallization solvent (solvent B) is then added which can include, but is not limited to the following, or mixtures of the following: tetrahydrofuran, ethyl acetate, cumene, isopropyl acetate, n-propyl acetate, dichloromethane, ethanol, isopropanol, methanol, isopropyl ether, diethyl ether and t-butyl methyl ether. A preferred solvent is isopropyl acetate. A sufficient volume of solvent B is added to typically reach a complete solvation of compound I at an elevated temperature. The elevated temperature will depend on the nature of the solvent, with a reflux condition being the highest temperature possible.
The crystalline compound I may also be isolated from a number of different solvent systems. Compound I is soluble at >600 mg/mL in 55° C. tetrahydrofuran, and can be recovered as crystalline material by cooling the solution. Similarly, compound I can be isolated as crystalline material from a hot solution of cumene. Compound I is very soluble in dichloromethane (>700 mg/mL), but can be precipitated as a crystalline material from the solution through the addition of diethyl ether. Ethyl acetate is an effective solvent for crystallization, with solubilities of compound I of ca. 150 mg/mL at 60° C. being achievable.

Data set [2] can be described thus: Solubility of Formula I compound in aqueous media. It counts as physicochemical. To be noted: aqueous media at a pH at or below 6.0. An excerpt:
The Formula I compound in freebase form, in a mixture of dichloromethane and another solvent can be washed with an aqueous base such as 0.5N sodium hydroxide to remove traces of hydrazine. The Formula I compound can then be extracted into a dilute aqueous acid such as 1N hydrochlororic acid. […] If the pH of the aqueous solution is below 5, it can then be adjusted to 5-7, with a preferred pH being 6.0 for the removal of impurities. Non-polar organic impurities will remain in the organic layer. A number of solvents can be used, if desired, for further extraction of non-polar organic impurities including ethyl acetate, methyl t-butyl ether, tetrahydrofuran, dichloromethane and chloroform.

Regarding `c1cc(CN2CCCNCCNCCCNCC2)ccc1CN1CCCNCCNCCCNCC1` [AMD3100], the “effect on HIV viral load and X4 (T-tropic) virus levels” value in the data set on HIV, X4 (T-tropic) virus is “reduce HIV viral load and X4 (T-tropic) virus levels”.

In general, solubility refers to the concentration that dissolves in the medium under given conditions. With `NCCCCN(Cc1nc2ccccc2[nH]1)C1CCCc2cccnc21` (stereo not drawn) [Compound I, N′-(1H-benzimidazol-2-ylmethyl)-N′-(5,6,7,8-tetrahydro-quinolin-8-yl)-butane-1,4-diamine], the solubility in data set [1] (60 °C, isopropyl acetate at 60-65° C., read-out: complete solubility in isopropyl acetate) is roughly 125 mg/mL (≈ 358 mM); in data set [1] (dichloromethane, read-out: solubility in dichloromethane), greater than 700 mg/mL; in data set [1] (55° C. tetrahydrofuran, read-out: solubility in tetrahydrofuran), greater than 600 mg/mL; in data set [1] (ethyl acetate at 60° C., read-out: solubility in ethyl acetate), roughly 150 mg/mL (≈ 429 mM). The “solubility in aqueous media” value in data set [2] was “readily soluble”.
